Values joined by “and” are separate entries in the source; they are usually repeats but may differ in a detail not shown here. Equal values may be shown once. “Also recorded” adds a separate entry of the source.
How the values were obtained:
[1] = target: T1, wt-PKR in mature human erythrocytes (Homo sapiens, UniProt P30613); test: Cell assay: PKR activation in purified human RBCs (Biovision Pyruvate Kinase Assay); type: cell-based; settings: 3 hr treatment
T1 construct: host or cells: purified human RBCs from donors
T1 sequence (P30613 whole entry): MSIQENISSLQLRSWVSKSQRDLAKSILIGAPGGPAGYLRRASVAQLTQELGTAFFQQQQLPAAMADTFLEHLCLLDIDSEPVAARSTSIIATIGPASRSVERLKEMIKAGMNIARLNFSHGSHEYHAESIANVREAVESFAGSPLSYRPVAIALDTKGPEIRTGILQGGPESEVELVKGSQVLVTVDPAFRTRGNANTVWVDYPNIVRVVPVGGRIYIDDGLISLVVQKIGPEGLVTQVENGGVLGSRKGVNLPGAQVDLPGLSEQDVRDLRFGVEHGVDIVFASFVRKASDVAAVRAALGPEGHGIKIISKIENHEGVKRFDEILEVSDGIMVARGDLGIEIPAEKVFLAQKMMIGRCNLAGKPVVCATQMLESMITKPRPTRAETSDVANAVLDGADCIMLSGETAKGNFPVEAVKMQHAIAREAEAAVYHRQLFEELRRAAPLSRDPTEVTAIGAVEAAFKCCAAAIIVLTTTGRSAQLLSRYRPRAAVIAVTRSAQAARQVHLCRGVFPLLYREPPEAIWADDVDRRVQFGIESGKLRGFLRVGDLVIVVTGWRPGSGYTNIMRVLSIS
Protocol: The activation of wt-PKR by Compound 1 in mature human erythrocytes ex vivo was evaluated in purified RBCs purchased from Research Blood Components. Cells treated with Compound 1 for 3 hr in glucose-containing media were washed, lysed, and assayed using a Biovision Pyruvate Kinase Assay (K709-100). The assay was repeated multiple times to account for donor-to-donor variability and the relatively narrow dynamic range.

[2] = tested on: ATP and 2,3-DPG levels in blood cells; test: 28-day daily dosing in non-human primates; type: in vivo
Protocol: 2,3-DPG levels in blood cells from non-human primates receiving daily doses of Compound 1 at 100, 350 and 550 mg/kg for 28 days were measured. Dose dependent decreases in 2,3-DPG levels were observed, with up to a 40% decrease from pretreatment levels, as illustrated in FIG. 22.

[3] = tested on: 2,3-DPG, ATP, p50, deformability of sickle RBCs; test: Phase 1, SCD patients single 700 mg dose: pharmacodynamics; type: in vivo, human
Protocol: (§1) In this study, SAD/MAD cohorts are randomized (3 to 1) to receive Compound 1 or placebo (P). Compound 1 was evaluated first in 4 healthy SAD cohorts and 4 healthy MAD (14-day dosing period) cohorts. Based on the safety, and PK/PD profile from HS, Compound 1 is then evaluated in 1 SCD SAD cohort and 2 SCD MAD cohorts. Specifically, based on the safety and pharmacokinetic/pharmacodynamics (PK/PD) profile in healthy volunteer studies, Compound 1 is evaluated in patients (pts) with SCD, first in a single dose (SD or SAD) cohort and then in multiple-dose (MD or MAD) cohorts (14-day and 12-week). Safety assessments include AEs, vital signs, ECGs and laboratory parameters. PK/PD blood sampling was performed on Day 1 (SAD/MAD) and Day 14 (MAD) and up to 72 h after the last dose and at the end-of-study visit. PD parameters included 2,3-DPG, ATP, and p50 in all cohorts with additional PD studies (including oxygen scan) performed only in the SCD cohorts. PD parameters included 2,3-DPG, ATP, p50, RBC deformability with controlled deoxygenation and reoxygenation (Lorrca® oxygen scan) and varying osmolality (Lorrca® osmoscan)). To maintain study blind, pt identifiers were removed when needed.
A potential exposure to the maximum PD response dose range to evaluate in patients with SCD was identified. Based on the safety and PK/PD profile in healthy volunteer studies, a 700 mg single dose was evaluated in patients with SCD (n=7). A single 700 mg dose of Compound 1 was selected to evaluate in patients with SCD to enable daily dosing cohorts at lower exposures.
The effects of a single dose of Compound 1 (700 mg) versus placebo on oxygen scan, oxygen affinity (p50), and osmoscan in SCD patients were evaluated. At the Point of Sickling (POS or PoS), polymerization of de-oxy HbS can affect the deformability of the RBCs and the elongation Index starts to decrease. The EImin refers to the lowest level of RBC deformability in the Oxygenscan. The lower the EImin the lower the deformability of the RBC. […] As shown in FIG. 53 and Table 25 (Oxygen affinity curve), Compound 1 increased O2 affinity (decreased p50) in all participants treated. […] These effects were transient, returning to baseline 3 to 7 days after the single dose of Compound 1.
The oxygen affinity of RBCs was measured in patient blood using a Hemox Analyzer (TCS Scientific Corp.), an automatic system for the recording of blood oxygen equilibrium curves and related phenomena. The Hemox Analyzer was used according to standard methods to determine the hemoglobin-oxygen dissociation curves for whole blood samples, numerically characterized by the p50, the partial pressure of oxygen at which hemoglobin is 50% saturated. […] In the case of hemoglobin, the wavelength of maximum absorbance is the measuring wavelength (560 nm), while the reference wavelength is at the isosbestic point at (570 nm). The absorbance at the isosbestic point remains unchanged during the deoxygenation process of the hemoglobin, however the measuring wavelength (560 nm) undergoes a drastic change in absorbance. This change is detected by the electronic circuitry and is plotted as the log/ratio change between the two wavelengths. The log/ratio measurement at 560 nm and 570 nm is utilized to measure the optical absorbance change during the deoxygenation of the hemoglobin. Simultaneously with the measurement of the hemoglobin absorbance, the oxygen concentration is directly measured in the sample using a Clark electrode. […]

[4] = Phase 1, SCD patients single 700 mg dose: safety; type: in vivo, human
Protocol: as §1
In the SD cohort, 7 pts (2 males, 5 females, all HbSS) received 700 mg Compound 1 (n=5) or placebo (n=2).
All SCD patients who received a single 700 mg dose of Compound 1 or placebo were monitored for adverse events for 7 days. The incidence of treatment emergent adverse events (TEAEs) in SCD patients receiving Compound 1 (700 mg) or placebo are reported in Table 23. Six TEAEs were reported in 4 patients; all TEAEs were grade 1 and transient. Specifically, six TEAEs were reported in 4 of 7 ([…]) patients, including 3 TEAEs (arthralgia, headache, palpitations) in 2 of 5 ([…]) pts receiving Compound 1 and 3 TEAEs (back pain, myalgia, pruritis) in 2 of 2 (100%) pts receiving placebo; all TEAEs were grade 1 and transient. […] One possibly related TEAE (palpitations) occurred about 8 hours post dose. No other symptoms were observed, and the palpitations resolved in <1 minute. […] The single 700 mg dose of Compound 1 was considered tolerable, and the first multiple dose SCD cohort (“Dose 1” in FIG. 28) was initiated.

[5] = tested on: estradiol and testosterone levels; test: Circulating estradiol and testosterone in healthy subjects, 14 days; type: in vivo, human; settings: healthy subjects, 100, 200, 300 mg BID and 400 mg QD for 14 days; days 8, 14, 17
Protocol: Effects on circulating levels of estradiol and testosterone in male and female healthy subjects receiving Compound 1 or placebo for a treatment period of 14 days were evaluated. Compound 1 was administered twice daily (BID) at dose levels of 100 mg, 200 mg, and 300 mg, and once daily (QD) at a dose level of 400 mg. Each dosing cohort was comprised of 9 subjects treated with Compound 1 and 3 subjects treated with placebo. Testosterone and estradiol levels were assessed prior to dosing (baseline), and then on days 8, 14 and 17.

[6] = SCD patients, 24 hours after single 700-mg dose

Compound: O=C([C@H](CO)c1ccccc1)N1CC2=C(C1)CN(S(=O)(=O)c1cnc3c(c1)OCCO3)C2 (single isomer, unassigned) [Compound 1]
- Max-Min (%) ([1]; individual replicates 1-4): <125% and <150% and <100% and <50%
- Max-Min (%), mean maximum activation increase ([1]; mean of replicates): <100%
- increase in ATP levels compared to pre-treatment ([2]; 550 mg/kg daily for 28 days (highest dose)): 90%
- decrease in 2,3-DPG from pretreatment levels ([2]; daily doses 100, 350 and 550 mg/kg for 28 days): ≤ 40%
- decrease of 2,3-DPG blood concentrations [3, 6]: 26%
- increase of ATP blood concentrations [3, 6]: 30%
- Hb increase compared with placebo ([3]; SCD, 24 h after a single dose): ~0.9 g/dL
- POS (Oxygenscan), post-dose (24 hours) ([3]; SCD, single 700 mg, median (range), pre-dose 35.4 (27.3, 38.8)): 24.0 (17.9, 31.8)
- Ohyper (Osmoscan), post-dose (24 hours) ([3]; SCD, single 700 mg, median (range), pre-dose 380 (371, 399)): 400 (371, 412)
- serious adverse events / TEAEs leading to withdrawal ([4]; SCD single dose cohort): No serious adverse events (SAEs) or TEAEs leading to pt withdrawal
- Any TEAE, n (%) ([4]; SCD, 700 mg single dose, N = 5): 2 (40) n (%)
- TEAE related to study drug, n (%) ([4]; SCD, 700 mg single dose, N = 5): 1 (20) n (%)
- pts with TEAEs (2 of 5) ([4]; SCD, 700 mg single dose, 3 TEAEs (arthralgia, headache, palpitations), grade 1): 40%
- change from baseline for testosterone and estradiol levels [5]: No effect on testosterone or estradiol levels; also recorded: no statistically significant changes

Reference: patent publication US20220378756A1, “ACTIVATING PYRUVATE KINASE R” (FORMA Therapeutics, Inc., priority 2019, published 2022)
